Inconclusive results and toxic doses are left out.
System: CD2F1 mice, L1210 leukemia ip, survival T/C
Experiment: NCI In Vivo Anticancer Drug Screen. Data for tumor model L1210 Leukemia (intraperitoneal) in CD2F1 (CDF1) mice
Conditions: endpoint: mean survival time, higher = longer survival
Method in brief: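 Antitumor effect is scored in animals hosting a serially transplanted tumor. Values compare compound-dosed animals against vehicle-only controls as a simple quotient.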

[1] = dose: 100.0 mg/kg/injection, schedule: Q01DX001 (ip), vehicle: saline
[2] = dose: 200.0 mg/kg/injection, schedule: Q01DX001 (ip), vehicle: saline
[3] = dose: 400.0 mg/kg/injection, schedule: Q01DX001 (ip), vehicle: saline
[4] = dose: 100.0 mg/kg/injection, schedule: Q01DX009 (ip), vehicle: saline with Tween-80
[5] = dose: 100.0 mg/kg/injection, schedule: Q04DX003 (ip), vehicle: saline with Tween-80
[6] = dose: 200.0 mg/kg/injection, schedule: Q01DX009 (ip), vehicle: saline with Tween-80
[7] = dose: 200.0 mg/kg/injection, schedule: Q04DX003 (ip), vehicle: saline with Tween-80
[8] = dose: 400.0 mg/kg/injection, schedule: Q01DX009 (ip), vehicle: saline with Tween-80
[9] = dose: 400.0 mg/kg/injection, schedule: Q04DX003 (ip), vehicle: saline with Tween-80
[10] = dose: 100.0 mg/kg/injection, schedule: Q01DX001 (ip), vehicle: saline with Tween-80
[11] = dose: 200.0 mg/kg/injection, schedule: Q01DX001 (ip), vehicle: saline with Tween-80
[12] = dose: 400.0 mg/kg/injection, schedule: Q01DX001 (ip), vehicle: saline with Tween-80
[13] = dose: 12.5 mg/kg/injection, schedule: Q01DX009 (ip), vehicle: saline with Tween-80
[14] = dose: 25.0 mg/kg/injection, schedule: Q01DX009 (ip), vehicle: saline with Tween-80
[15] = dose: 50.0 mg/kg/injection, schedule: Q01DX009 (ip), vehicle: saline with Tween-80
[16] = dose: 100.0 mg/kg/injection, schedule: Q01DX009 (ip), vehicle: Klucel (hydroxypropylcellulose) (HPC)
[17] = dose: 200.0 mg/kg/injection, schedule: Q01DX009 (ip), vehicle: Klucel (hydroxypropylcellulose) (HPC)

For `c1ccc2c(P(c3cccc4ccccc34)c3cccc4ccccc34)cccc2c1`, the T/C [1] was 100 % of control, the T/C [2] was 93 % of control and the T/C [3] was 89 % of control.
In the case of `O=C1C(n2ccc(=O)n(C(=O)c3ccccc3)c2=O)CCN1CCO` (centres undefined), the T/C [1] is reported as 102 % of control, the T/C [2] is reported as 100 % of control and the T/C [3] is reported as 102 % of control.
For `CC(CCCOS(C)(=O)=O)OS(C)(=O)=O` (centres undefined), the T/C (dose: 25.0 mg/kg/injection, schedule: Q04DX002 (ip), vehicle: Klucel (hydroxypropylcellulose) (HPC)) was 105 % of control, the T/C (dose: 50.0 mg/kg/injection, schedule: Q04DX002 (ip), vehicle: Klucel (hydroxypropylcellulose) (HPC)) was 108 % of control and the T/C (dose: 100.0 mg/kg/injection, schedule: Q04DX002 (ip), vehicle: Klucel (hydroxypropylcellulose) (HPC)) was 94 % of control.
With `N#C/C(N)=C(\C#N)N=C1OCC(O)C(O)C1O` (centres undefined) the T/C (dose: 12.5 mg/kg/injection, schedule: Q01DX005 (ip), vehicle: other) was 102 % of control, the T/C (dose: 25.0 mg/kg/injection, schedule: Q01DX005 (ip), vehicle: other) was 101 % of control and the T/C (dose: 50.0 mg/kg/injection, schedule: Q01DX005 (ip), vehicle: other) was 98 % of control. For the same compound, the T/C (dose: 100.0 mg/kg/injection, schedule: Q01DX005 (ip), vehicle: other) was 106 % of control and the T/C (dose: 200.0 mg/kg/injection, schedule: Q01DX005 (ip), vehicle: other) was 112 % of control.
In the case of `O=C(/C=C/c1ccncc1)c1ccccc1`, the T/C [4] is reported as 92 % of control, the T/C [5] is reported as 89 % of control and the T/C [6] is reported as 89 % of control. For the same compound, the T/C [7] was 89 % of control, the T/C [8] was 91 % of control and the T/C [9] was 95 % of control.
For `O=C(O)c1ccc([N+](=O)[O-])nc1`, the T/C [10] was 91 % of control, the T/C [11] was 95 % of control and the T/C [12] was 93 % of control.
`Cn1c2c(c3ccccc31)C(=O)CC2(C)C` was tested, and the T/C (dose: 50.0 mg/kg/injection, schedule: Q04DX003 (ip), vehicle: saline with Tween-80) was 103 % of control, the T/C [10] was 93 % of control and the T/C [5] was 89 % of control. The T/C [11] was 98 % of control.
With `CC(=O)[O][Hg][c]1ccccc1` the T/C (dose: 12.5 mg/kg/injection, schedule: Q01DX001 (ip), vehicle: Klucel (hydroxypropylcellulose) (HPC)) was 100 % of control, the T/C [13] was 106 % of control and the T/C (dose: 25.0 mg/kg/injection, schedule: Q01DX001 (ip), vehicle: Klucel (hydroxypropylcellulose) (HPC)) was 106 % of control. The T/C [14] was 98 % of control.
For `Cc1cc(C)c(C(Cl)(Cl)Cl)c(C)c1Cl`, the T/C [14] was 108 % of control, the T/C [15] was 111 % of control and the T/C [10] was 107 % of control.
`CCCCS(=O)(=O)C(c1ccccc1)c1ccccc1` was tested, and the T/C (dose: 100.0 mg/kg/injection, schedule: Q01DX001 (ip), vehicle: Klucel (hydroxypropylcellulose) (HPC)) was 90 % of control, the T/C (dose: 200.0 mg/kg/injection, schedule: Q01DX001 (ip), vehicle: Klucel (hydroxypropylcellulose) (HPC)) was 96 % of control and the T/C (dose: 400.0 mg/kg/injection, schedule: Q01DX001 (ip), vehicle: Klucel (hydroxypropylcellulose) (HPC)) was 90 % of control.
With `CC1(C)N=C(N)N=C(N)N1c1ccc(CNC(=O)Nc2cccc(S(=O)(=O)F)c2)cc1` the T/C (dose: 6.25 mg/kg/injection, schedule: Q01DX009 (ip), vehicle: saline) was 115 % of control, the T/C (dose: 75.0 mg/kg/injection, schedule: Q01DX001 (ip), vehicle: other) was 104 % of control and the T/C (dose: 150.0 mg/kg/injection, schedule: Q01DX001 (ip), vehicle: other) was 107 % of control. For the same compound, the T/C (dose: 300.0 mg/kg/injection, schedule: Q01DX001 (ip), vehicle: other) was 115 % of control.
`O=C1OC(=O)C2C3CC(C(Br)C3Br)C12` (centres undefined) was tested, and the T/C [1] was 97 % of control, the T/C [4] was 106 % of control and the T/C [2] was 98 % of control. For the same compound, the T/C [6] was 104 % of control, the T/C [3] was 97 % of control and the T/C [8] was 101 % of control.
`CCN(CC)c1ccc(N=Nc2cc(Cl)ccc2Cl)c(NC(=O)CSC(C)=O)c1` was tested, and the T/C (dose: 100.0 mg/kg/injection, schedule: Q04DX003 (ip), vehicle: other) was 94 % of control, the T/C (dose: 200.0 mg/kg/injection, schedule: Q04DX003 (ip), vehicle: other) was 100 % of control and the T/C (dose: 400.0 mg/kg/injection, schedule: Q04DX003 (ip), vehicle: other) was 97 % of control.
For `O=C(O)c1ccc(N/N=C/C(F)(F)F)cc1`, the T/C (dose: 1.87 mg/kg/injection, schedule: Q01DX009 (ip), vehicle: saline) was 107 % of control, the T/C (dose: 3.75 mg/kg/injection, schedule: Q01DX009 (ip), vehicle: saline) was 105 % of control and the T/C (dose: 6.25 mg/kg/injection, schedule: Q01DX001 (ip), vehicle: saline with Tween-80) was 97 % of control. The T/C (dose: 7.5 mg/kg/injection, schedule: Q01DX009 (ip), vehicle: saline) was 105 % of control, the T/C (dose: 12.5 mg/kg/injection, schedule: Q01DX001 (ip), vehicle: saline with Tween-80) was 94 % of control and the T/C [13] was 107 % of control. The T/C (dose: 15.0 mg/kg/injection, schedule: Q01DX009 (ip), vehicle: saline) was 109 % of control, the T/C (dose: 25.0 mg/kg/injection, schedule: Q01DX001 (ip), vehicle: saline with Tween-80) was 94 % of control and the T/C [14] was 109 % of control. For the same compound, the T/C (dose: 50.0 mg/kg/injection, schedule: Q01DX001 (ip), vehicle: saline with Tween-80) was 101 % of control, the T/C [15] was 101 % of control and the T/C [10] was 95 % of control. For the same compound, the T/C [11] was 89 % of control and the T/C [12] was 118 % of control.
In the case of `Nc1ccnc(Oc2ccc(Cl)cc2)n1`, the T/C [10] is reported as 104 % of control, the T/C [11] is reported as 104 % of control and the T/C [12] is reported as 98 % of control.
With `CCc1ccc(OC(C)=O)cc1` the T/C (dose: 50.0 mg/kg/injection, schedule: Q01DX009 (ip), vehicle: Klucel (hydroxypropylcellulose) (HPC)) was 98 % of control, the T/C [16] was 98 % of control and the T/C [17] was 90 % of control.
In the case of `CC(C)C1CCC(C)(Cl)C2CCC(C)(Cl)CC12` (centres undefined), the T/C [5] is reported as 96 % of control, the T/C (dose: 100.0 mg/kg/injection, schedule: Q04DX003 (ip), vehicle: saline) is reported as 104 % of control and the T/C [7] is reported as 91 % of control. The T/C (dose: 200.0 mg/kg/injection, schedule: Q04DX003 (ip), vehicle: saline) was 102 % of control, the T/C [9] was 93 % of control and the T/C (dose: 400.0 mg/kg/injection, schedule: Q04DX003 (ip), vehicle: saline) was 95 % of control.
`CC(=O)Nc1ccc(N=CN(C)C)cc1` was tested, and the T/C [5] was 95 % of control, the T/C [7] was 95 % of control and the T/C [9] was 112 % of control.
For `CC(=O)c1ccc(N=NNc2ccc(C(C)=O)cc2)cc1`, the T/C [10] was 103 % of control, the T/C [4] was 96 % of control and the T/C [11] was 95 % of control. For the same compound, the T/C [6] was 95 % of control and the T/C [12] was 95 % of control.
For `O=C(C/C(=N\N(C(=O)c1ccccc1)c1ccccc1)c1ccccc1)c1ccccc1`, the T/C [5] was 92 % of control, the T/C [7] was 97 % of control and the T/C [9] was 100 % of control.
In the case of `Clc1ccccc1N=Cc1ccc2c(c1)OCO2`, the T/C [16] is reported as 105 % of control, the T/C (dose: 100.0 mg/kg/injection, schedule: Q04DX003 (ip), vehicle: alcohol) is reported as 103 % of control and the T/C [17] is reported as 100 % of control. For the same compound, the T/C (dose: 200.0 mg/kg/injection, schedule: Q04DX003 (ip), vehicle: alcohol) was 109 % of control, the T/C (dose: 400.0 mg/kg/injection, schedule: Q01DX009 (ip), vehicle: Klucel (hydroxypropylcellulose) (HPC)) was 100 % of control and the T/C (dose: 400.0 mg/kg/injection, schedule: Q04DX003 (ip), vehicle: alcohol) was 105 % of control.
`NNC(=O)C1CCN1C(c1ccccc1)c1ccccc1` (centres undefined) was tested, and the T/C [10] was 98 % of control.
With `O=S(=O)(c1ccc(Cl)cc1)N(Cl)Cl` the T/C [10] was 103 % of control and the T/C [11] was 101 % of control.
In the case of `CC1C[C@@H](O)C(NC(=O)N(CCCl)N=O)[C@@H](O)C1` (some centres undefined), the T/C (dose: 6.0 mg/kg/injection, schedule: Q01DX001 (ip), vehicle: saline) is reported as 191 % of control, the T/C (dose: 9.0 mg/kg/injection, schedule: Q01DX001 (ip), vehicle: saline) is reported as 367 % of control and the T/C (dose: 13.0 mg/kg/injection, schedule: Q01DX001 (ip), vehicle: saline) is reported as 297 % of control. For the same compound, the T/C (dose: 20.0 mg/kg/injection, schedule: Q01DX001 (ip), vehicle: saline) was 500 % of control and the T/C (dose: 30.0 mg/kg/injection, schedule: Q01DX001 (ip), vehicle: saline) was 298 % of control.
`CC(C(=O)c1ccc(-c2ccccc2)cc1)C(Cl)c1ccccc1` (centres undefined) was tested, and the T/C [5] was 95 % of control, the T/C [7] was 95 % of control and the T/C [9] was 100 % of control.
For `CCOC(=O)C(C)(C)CN1COCC1(C)C`, the T/C [10] was 112 % of control and the T/C [11] was 109 % of control.
With `CCCCC(=O)Nc1ccc(Cl)cc1` the T/C [10] was 101 % of control, the T/C [11] was 95 % of control and the T/C [12] was 106 % of control.
